Measurements published in US6706740B2, “Fungicidal heterocyclic aromatic amides and their compositions, methods of use and preparation” (Dow AgroSciences LLC, priority 1999, dated 2004).
Like-named read-outs stand apart in the source and are kept apart here.

What was measured:
Ustilago maydis (USTIMA) = assay: microbe, parasite or virus in culture; format: cell-based; conditions: Mycosarcoma maydis, read-out: USTIMA in vitro Growth Inhibition
[1] = system: Stagonospora nodorum (Leptosphaeria nodorum—LEPTNO); assay: In vitro fungal growth inhibition, Stagonospora nodorum (LEPTNO); format: cell-based; conditions: Leptosphaeria, read-out: LEPTNO in vitro Growth Inhibition
[2] = system: Phytophthora infestans (PHYTIN); assay: microbe, parasite or virus in culture; format: cell-based; conditions: Phytophthora infestans, read-out: PHYTIN in vitro Growth Inhibition
Septoria tritici—SEPTTR = assay: Leaf Blotch of Wheat, in vivo whole plant, 24 Hour Protectant; conditions: for pest or weed control at 100 ppm: Zymoseptoria tritici, 24 h, control of fungal infection vs untreated plants, read-out: SEPTTR in vivo 1 Day Protectant
[3] = system: Puccinia recondita—PUCCRT; assay: Brown Rust of Wheat, in vivo whole plant, 24 Hour Protectant; conditions: for pest or weed control at 100 ppm: Puccinia, control of fungal infection vs untreated plants, read-out: PUCCRT in vivo 1 Day Protectant
[4] = system: Phytophthora infestans—PHYTIN; assay: whole plant or invertebrate; format: in vivo; conditions: Phytophthora, in Solanum lycopersicum, 24 h, read-out: PHYTIN in vivo 1 Day Protectant
[5] = system: Rhizoctonia solani (RHIZSO); assay: microbe, parasite or virus in culture; format: cell-based; conditions: Rhizoctonia solani, read-out: RHIZSO in vitro Growth Inhibition
[6] = system: Magnaporthe grisea (Pyricularia oryzae—PYRIOR); assay: microbe, parasite or virus in culture; format: cell-based; conditions: Pyricularia oryzae, read-out: PYRIOR in vitro Growth Inhibition
Erysiphe graminis—ERYSGT = assay: Powdery Mildew of Wheat, in vivo whole plant, 24 Hour Protectant; conditions: for pest or weed control at 100 ppm: Erysiphe, control of fungal infection vs untreated plants, read-out: ERYSGT in vivo 1 Day Protectant
[7] = system: Leptosphaeria nodorum—LEPTNO; assay: Glume Blotch of Wheat, in vivo whole plant, 24 Hour Protectant; conditions: for pest or weed control at 100 ppm: Leptosphaeria, read-out: LEPTNO in vivo 1 Day Protectant
[8] = system: Mycosphaerella graminicola (Septoria tritici—SEPTTR); assay: In vitro fungal growth inhibition, Mycosphaerella graminicola (SEPTTR); format: cell-based; conditions: Zymoseptoria tritici, read-out: SEPTTR in vitro Growth Inhibition
[9] = 100 ppm spray, wheat, 24 hour protectant
[10] = 100 ppm spray, wheat, 24 hour protectant, control of fungal infection vs untreated plants
[11] = wheat plants sprayed at 100 ppm, inoculated after 24 hours
[12] = wheat plants sprayed at 100 ppm, inoculated after 24 hours, control of fungal infection vs untreated plants
[13] = 100 ppm spray, 24 hour protectant, wheat
[14] = 100 ppm spray, 24 hour protectant, wheat, control of fungal infection vs untreated plants
[15] = 100 ppm spray, wheat, 24 hour protectant, % control of fungal infection vs untreated plants

SMILES	inhibition at 25 ppm (Ustilago maydis (USTIMA)) [%]	inhibition at 25 ppm ([1]; 25 ppm in growth medium) [%]	inhibition at 25 ppm [2] [%]	pest or weed control at 100 ppm [4] [%]	inhibition at 25 ppm [5] [%]	melting point	inhibition at 25 ppm [6] [%]	inhibition at 25 ppm ([8]; 25 ppm in growth medium) [%]	inhibition at 25 ppm ([1]; 25 ppm in the growth medium) [%]	pest or weed control at 100 ppm (Septoria tritici—SEPTTR; [11]) [%]	pest or weed control at 100 ppm [3, 11] [%]	pest or weed control at 100 ppm (Erysiphe graminis—ERYSGT; [11]) [%]	pest or weed control at 100 ppm [7, 12] [%]	inhibition at 25 ppm ([8]; 25 ppm in the growth medium) [%]	further results
COc1ccnc(C(=O)N[C@H]2COC(=O)[C@H](Oc3ccccc3)[C@@H](OC(=O)C(C)C)[C@H](C)OC2=O)c1O [Compound 403]	< 80	> 80	< 80	< 25	< 80	194 to 195 °C	< 80	> 80	–	–	–	–	–	–	pest or weed control at 100 ppm (Septoria tritici—SEPTTR; [9]): 25 to 74%; pest or weed control at 100 ppm [3, 9]: 25 to 74%; pest or weed control at 100 ppm (Erysiphe graminis—ERYSGT; [9]): < 25%; LEPTNO in vivo 1 Day Protectant [7, 10]: + +
CC1(C)CC(NC(=O)c2nscc2O)CC(C)(C)C1 [Compound 549]	< 80	–	> 80	< 25	< 80	121 to 125 °C	< 80	–	< 80	25 to 74	< 25	< 25	25 to 74	> 80	–
COc1ccnc(C(=O)NC2CC(C)(C)C(OC(=O)c3cccc(Cl)n3)C(C)(C)C2)c1O (stereo not drawn) [Compound 269]	< 80	< 80	< 80	< 25	< 80	55 to 65 °C	< 80	< 80	–	–	–	–	–	–	pest or weed control at 100 ppm (Septoria tritici—SEPTTR; [13]): 25 to 74%; pest or weed control at 100 ppm [3, 13]: 25 to 74%; pest or weed control at 100 ppm (Erysiphe graminis—ERYSGT; [13]): < 25%; pest or weed control at 100 ppm [7, 14]: < 25%
O=C(NCC1CCCc2ccccc21)c1nc(Br)ccc1O (stereo not drawn) [Compound 485]	< 80	–	< 80	< 25	< 80	140 to 142 °C	< 80	–	< 80	< 25	< 25	< 25	< 25	< 80	–
CCOc1ccnc(C(=O)NC2CC(C)(C)CC(C)(C)C2)c1O [Compound 474]	< 80	–	< 80	< 25	< 80	107 to 110 °C	< 80	–	< 80	< 25	25 to 74	< 25	25 to 74	< 80	–
COCCC(=O)Oc1c(OC)ccnc1C(=O)N[C@H]1COC(=O)[C@H](Cc2ccccc2)[C@@H](OC(=O)C(C)(C)C)[C@H](C)OC1=O [Compound 703]	< 80	> 80	< 80	< 25	< 80	144 to 145 °C	< 80	< 80	–	–	–	–	–	–	SEPTTR in vivo 1 Day Protectant (Septoria tritici—SEPTTR; [15]): + +; PUCCRT in vivo 1 Day Protectant [3, 15]: + +; ERYSGT in vivo 1 Day Protectant (Erysiphe graminis—ERYSGT; [15]): + +; LEPTNO in vivo 1 Day Protectant [7, 15]: + +
CC(C)C(=O)O[C@H]1[C@H](C)OC(=O)[C@@H](NC(=O)c2conc2O)COC(=O)[C@@H]1Cc1ccccc1 [Compound 561]	< 80	–	< 80	< 25	< 80	115 to 117 °C	< 80	–	< 80	25 to 74	25 to 74	25 to 74	< 25	< 80	–
CC(C)C(=O)O[C@H]1[C@H](C)OC(=O)[C@@H](NC(=O)c2nc3ccccc3cc2O)COC(=O)[C@@H]1Cc1ccccc1 [Compound 562]	< 80	–	< 80	< 25	< 80	163 to 165 °C	< 80	–	< 80	25 to 74	< 25	25 to 74	< 25	< 80	–
CC1(C)CC(NC(=O)c2nc3ccccc3nc2O)CC(C)(C)C1 [Compound 563]	< 80	–	< 80	< 25	< 80	> 300 °C	< 80	–	< 80	< 25	< 25	< 25	25 to 74	< 80	–
COc1ccnc(C(=O)N[C@H]2C(O)[C@@H]3CC[C@H]2[C@@H]2CCCC[C@@H]23)c1O (stereo partly drawn) [Compound 293]	< 80	< 80	< 80	< 25	< 80	143 to 160 °C (dec.)	< 80	< 80	–	–	–	–	–	–	pest or weed control at 100 ppm (Septoria tritici—SEPTTR; [13]): 25 to 74%; pest or weed control at 100 ppm [3, 13]: < 25%; pest or weed control at 100 ppm (Erysiphe graminis—ERYSGT; [13]): < 25%; pest or weed control at 100 ppm [7, 14]: 25 to 74%
COc1ccnc(C(=O)NC2COC(=O)CC3(CCCCC3)CC(=O)OC2)c1O [Compound 380]	< 80	< 80	< 80	< 25	< 80	107 to 108 °C	< 80	< 80	–	–	–	–	–	–	pest or weed control at 100 ppm (Septoria tritici—SEPTTR; [9]): < 25%; pest or weed control at 100 ppm [3, 9]: < 25%; pest or weed control at 100 ppm (Erysiphe graminis—ERYSGT; [9]): 25 to 74%; pest or weed control at 100 ppm [7, 10]: 25 to 74%
COc1ccnc(C(=O)NC2CC(C)(C)CC(C)(C(=O)c3ccccc3)C2)c1O (stereo not drawn) [Compound 260]	< 80	> 80	< 80	< 25	< 80	147 to 149 °C	< 80	< 80	–	–	–	–	–	–	pest or weed control at 100 ppm (Septoria tritici—SEPTTR; [13]): 25 to 74%; pest or weed control at 100 ppm [3, 13]: < 25%; pest or weed control at 100 ppm (Erysiphe graminis—ERYSGT; [13]): < 25%; pest or weed control at 100 ppm [7, 14]: 25 to 74%
CC(C)C(=O)O[C@H]1[C@H](C)OC(=O)[C@@H](NC(=O)c2cnccc2O)COC(=O)[C@@H]1Cc1ccccc1 [Compound 503]	< 80	–	< 80	< 25	< 80	213 to 215 °C (dec.)	< 80	–	> 80	< 25	25 to 74	25 to 74	25 to 74	> 80	–
CC1(C)CC(NC(=O)c2cc(O)cnc2O)CC(C)(C)C1 [Compound 526]	< 80	–	< 80	< 25	< 80	320 to 327 °C	< 80	–	< 80	25 to 74	< 25	< 25	25 to 74	< 80	–
